Data published in patent US6472348B1, “Pyridone derivatives and herbicides” (Kumiai Chemical Industry Co., Ltd., priority 1996, dated 2002).

Legend:
[1] = test system: pale smartweed (Po); assay: Test Example 11: crop plant selectivity by upland field foliage treatment (corn), herbicidal effects; format: in vivo; set-up: scale not given here; conditions: upland field foliage treatment (corn test), dose 1.6 g ai/10a, 14th day after treatment
Outline: (§1)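 Corn and the weed species were sown together in sand-filled pots and grown in a greenhouse for 2 weeks before foliar treatment. Herbicidal effect was scored on day 14 after treatment against a graded standard scale, with corn phytotoxicity scored alongside.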

[2] = test system: China jute (Ab); assay: as above; format: in vivo; set-up: scale not given here; conditions: upland field foliage treatment (corn test), dose 1.6 g ai/10a, 14th day after treatment
Outline: as §1

[3] = test system: slender amaranth (Am); assay: as above; format: in vivo; set-up: scale not given here; conditions: upland field foliage treatment (corn test), dose 1.6 g ai/10a, 14th day after treatment
Outline: as §1

[4] = test system: common lambsquarters (Ch); assay: as above; format: in vivo; set-up: scale not given here; conditions: upland field foliage treatment (corn test), dose 1.6 g ai/10a, 14th day after treatment
Outline: as §1

[5] = test system: rice flatsedge (Ci); assay: Test Example 2: herbicidal effects by upland field soil treatment; format: in vivo; conditions: 100 g of the active ingredient per 10 ares, evaluated on the 21st day after application;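 further: grade of growth control; 5 = at least 90%; 4 = 70 to 90%; 3 = 50 to 70%; 2 = 30 to 50%; 1 = 10 to 30%; 0 = under 10%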
Description: (§2) (Test on Herbicidal Effects by Upland Field Soil Treatment)

[6] = test system: pale smartweed (Po); assay: as above; format: in vivo; conditions: 100 g of the active ingredient per 10 ares, evaluated on the 21st day after application
Description: as §2

[7] = test system: barnyardgrass (Ec); assay: as above; format: in vivo; conditions: 100 g of the active ingredient per 10 ares, evaluated on the 21st day after application
Description: as §2

[8] = test system: Digitaria ciliaris (Di); assay: as above; format: in vivo; conditions: 100 g of the active ingredient per 10 ares, evaluated on the 21st day after application;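 further: grade of growth control; 5 = at least 90%; 4 = 70 to 90%; 3 = 50 to 70%; 2 = 30 to 50%; 1 = 10 to 30%; 0 = under 10%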
Description: as §2

[9] = test system: slender amaranth (Am); assay: as above; format: in vivo; conditions: 100 g of the active ingredient per 10 ares, evaluated on the 21st day after application
Description: as §2

[10] = test system: common lambsquarters (Ch); assay: as above; format: in vivo; conditions: 100 g of the active ingredient per 10 ares, evaluated on the 21st day after application
Description: as §2

[11] = test system: pale smartweed (Po); assay: Test Example 10: crop plant selectivity by upland field foliage treatment (soybean), herbicidal effects; format: in vivo; conditions: dose 1.6 g ai/10a, 14th day after treatment
Method: (§3) (Test on Crop Plant Selectivity by Upland Field Foliage Treatment)
(§4) In a plastic pot (surface area: 600 cm^2) filled with sand, soybean (Gl), pale smartweed (Po), slender amaranth (Am), common lambsquarters (Ch) and China jute (Ab) were sown and cultured in a green house for 2 weeks. […] The plants were then cultured in a green house, and the evaluation of the herbicidal effects and phytotoxicity was conducted on the 14th day after the treatment in accordance with the standards as identified in Table 47.

[12] = test system: China jute (Ab); assay: as above; format: in vivo; conditions: dose 1.6 g ai/10a, 14th day after treatment
Method: as §3, §4

[13] = test system: slender amaranth (Am); assay: as above; format: in vivo; conditions: dose 1.6 g ai/10a, 14th day after treatment
Method: as §3, §4

[14] = test system: common lambsquarters (Ch); assay: as above; format: in vivo; conditions: dose 1.6 g ai/10a, 14th day after treatment
Method: as §3, §4

[15] = test system: Diaitaria ciliaris (Di); assay: Test Example 3: herbicidal effects by upland field foliage treatment; format: in vivo; set-up: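 grade of growth control; 5 = at least 90%; 4 = 70 to 90%; 3 = 50 to 70%; 2 = 30 to 50%; 1 = 10 to 30%; 0 = under 10%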; conditions: 100 g active ingredient per 10 ares, evaluated 14th day after treatment
Outline: (§5)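 Scoring used a standard effect scale on the 14th day post-treatment, with plants held in a greenhouse throughout. Foliar application was made to weeds raised from seed in sand-filled pots for 2 weeks.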

[16] = test system: rice flatsedge (Ci); assay: as above; format: in vivo; set-up: scale not given here; conditions: 100 g active ingredient per 10 ares, evaluated 14th day after treatment
Outline: as §5

[17] = test system: pale smartweed (Po); assay: as above; format: in vivo; set-up: scale not given here; conditions: 100 g active ingredient per 10 ares, evaluated 14th day after treatment
Outline: as §5

[18] = test system: barnyardgrass (Ec); assay: as above; format: in vivo; set-up: scale not given here; conditions: 100 g active ingredient per 10 ares, evaluated 14th day after treatment
Outline: as §5

[19] = test system: slender amaranth (Am); assay: as above; format: in vivo; set-up: scale not given here; conditions: 100 g active ingredient per 10 ares, evaluated 14th day after treatment
Outline: as §5

[20] = test system: common lambsquarters (Ch); assay: as above; format: in vivo; set-up: scale not given here; conditions: 100 g active ingredient per 10 ares, evaluated 14th day after treatment
Outline: as §5

[21] = test system: bulrush (Sc); assay: Test Example 1: herbicidal effects by paddy field soil treatment; format: in vivo; conditions: 100 g of the active ingredient per 10 ares, 21st day after the application, index 0-5 of Table 47;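 further: grade of growth control; 5 = at least 90%; 4 = 70 to 90%; 3 = 50 to 70%; 2 = 30 to 50%; 1 = 10 to 30%; 0 = under 10%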
Outline: (§6)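 Flooded paddy-soil pots (3 cm water) sown after puddling/leveling; treatment 100 g a.i./10 ares; greenhouse culture; herbicidal effect rated visually on a scoring scale at 21 d post-application.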

[22] = test system: barnyardgrass (Ec); assay: as above; format: in vivo; conditions: 100 g of the active ingredient per 10 ares, 21st day after the application, index 0-5 of Table 47
Outline: as §6

[23] = test system: monochoria (Mo); assay: as above; format: in vivo; conditions: 100 g of the active ingredient per 10 ares, 21st day after the application, index 0-5 of Table 47;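 further: grade of growth control; 5 = at least 90%; 4 = 70 to 90%; 3 = 50 to 70%; 2 = 30 to 50%; 1 = 10 to 30%; 0 = under 10%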
Outline: as §6

[24] = test system: corn (Ze); assay: Test Example 11: crop plant selectivity by upland field foliage treatment (corn), phytotoxicity; conditions: upland field foliage treatment, dose 1.6 g ai/10a, 14th day after treatment
Outline: as §1

[25] = test system: soybean (Gl); assay: Test Example 10: crop plant selectivity by upland field foliage treatment (soybean), phytotoxicity; conditions: dose 1.6 g ai/10a, 14th day after treatment
Method: as §3, §4

[26] = test system: wheat (Tr); assay: Test Example 9: crop plant selectivity by upland field foliage treatment (wheat), phytotoxicity; conditions: dose 1.6 g ai/10a, 14th day after treatment
Outline: (§7)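 Sand-filled pot, wheat + weeds co-sown; greenhouse 2 wk, then foliage treatment; greenhouse culture continued; visual scoring of weed control and crop injury at 14 d post-treatment per grading scale.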

[27] = test system: pale smartweed (Po); assay: Test Example 9: crop plant selectivity by upland field foliage treatment (wheat), herbicidal effects; format: in vivo; set-up: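 grade of growth control; 5 = at least 90%; 4 = 70 to 90%; 3 = 50 to 70%; 2 = 30 to 50%; 1 = 10 to 30%; 0 = under 10%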; conditions: dose 1.6 g ai/10a, 14th day after treatment
Outline: as §7

[28] = test system: China jute (Ab); assay: as above; format: in vivo; set-up: scale not given here; conditions: dose 1.6 g ai/10a, 14th day after treatment
Outline: as §7

[29] = test system: slender amaranth (Am); assay: as above; format: in vivo; set-up: scale not given here; conditions: dose 1.6 g ai/10a, 14th day after treatment
Outline: as §7

[30] = test system: common lambsquarters (Ch); assay: as above; format: in vivo; set-up: scale not given here; conditions: dose 1.6 g ai/10a, 14th day after treatment
Outline: as §7

C#CCOCc1cc(-c2ccc(C(F)(F)F)n(C)c2=O)c(F)cc1Cl [Compound No. 1-199, 3-(4-chloro-2-fluoro-5-propargyloxymethylphenyl)-1-methyl-6-trifluoromethyl-2(1H)-pyridone]
Herbicidal effects Po [1]: 5 | Herbicidal effects Ab [2]: 5 | Herbicidal effects Am [3]: 5 | Herbicidal effects Ch [4]: 5 | Herbicidal effects Ci [5]: 5 | Herbicidal effects Po [6]: 5 | Herbicidal effects Ec [7]: 5 | Herbicidal effects Di [8]: 5 | Herbicidal effects Am [9]: 5 | Herbicidal effects Ch [10]: 5 | Herbicidal effects Po [11]: 5 | Herbicidal effects Ab [12]: 5 | Herbicidal effects Am [13]: 5 | Herbicidal effects Ch [14]: 5 | Herbicidal effects Di [15]: 5 | Herbicidal effects Ci [16]: 5 | Herbicidal effects Po [17]: 5 | Herbicidal effects Ec [18]: 4 | Herbicidal effects Am [19]: 5 | Herbicidal effects Ch [20]: 5 | Herbicidal effects Sc [21]: 5 | Herbicidal effects Ec [22]: 5 | Herbicidal effects Mo [23]: 5 | Phytotoxicity Ze [24]: 2 | Phytotoxicity Gl [25]: 2 | Phytotoxicity Tr [26]: 2 | melting point: 99 to 101 °C | Herbicidal effects Po [27]: 5 | Herbicidal effects Ab [28]: 5 | Herbicidal effects Am [29]: 5 | Herbicidal effects Ch [30]: 5
